Measurements from patent publication US10239863B2, “Factor XIa inhibitors” (Merck Sharp & Dohme Corp., priority 2013, dated 2019).
Where a name gives a salt, the structure may show the parent alone.

What follows are compounds tested against T1, purified human Factor XIa (Homo sapiens, UniProt P03951) (assay: Factor XIa Assay (hydrolysis of fluorogenic substrate Z-Gly-Pro-Arg-AFC)). Conditions: purified human Factor XIa 40 pM; Z-Gly-Pro-Arg-AFC 100 μM; 50 mM HEPES pH 7.4; read-out: Factor XIa Inhibition (IC50 (nM)).
T1 construct: Determinations were made using purified human Factor XIa; purchased Sekisui Diagnostics
T1 sequence (P03951 388-625 limits assumed): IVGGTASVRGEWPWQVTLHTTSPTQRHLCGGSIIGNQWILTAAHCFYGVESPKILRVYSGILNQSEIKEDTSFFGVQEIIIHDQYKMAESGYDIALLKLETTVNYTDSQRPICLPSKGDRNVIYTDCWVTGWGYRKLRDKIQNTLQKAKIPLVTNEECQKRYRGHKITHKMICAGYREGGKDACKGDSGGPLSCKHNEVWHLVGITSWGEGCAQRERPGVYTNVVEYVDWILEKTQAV
T1 sequence (P03951 19-387 partner limits assumed): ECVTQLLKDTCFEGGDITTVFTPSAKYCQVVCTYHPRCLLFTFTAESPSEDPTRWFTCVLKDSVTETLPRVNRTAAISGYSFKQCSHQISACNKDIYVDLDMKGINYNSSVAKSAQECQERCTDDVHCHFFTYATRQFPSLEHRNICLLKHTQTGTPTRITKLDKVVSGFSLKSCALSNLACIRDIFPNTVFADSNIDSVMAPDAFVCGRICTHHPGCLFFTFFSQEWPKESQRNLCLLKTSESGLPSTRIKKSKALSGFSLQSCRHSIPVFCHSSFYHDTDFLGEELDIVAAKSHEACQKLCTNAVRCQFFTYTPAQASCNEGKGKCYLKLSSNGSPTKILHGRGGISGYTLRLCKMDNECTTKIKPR
Assay type: biochemical
Protocol: The effectiveness of compounds of the present invention as inhibitors of Coagulation Factor XIa can be determined using a relevant purified serine protease, and an appropriate synthetic substrate. The rate of hydrolysis of the chromogenic or fluorogenic substrate by the relevant serine protease was measured both in the absence and presence of compounds of the present invention. Assays were conducted at room temperature or at 37° C. […] A decrease in the rate of fluorescence change in the presence of inhibitor is indicative of enzyme inhibition. Such methods are known to one skilled in the art. […]
Factor XIa determinations were made in 50 mM HEPES buffer at pH 7.4 containing 150 mM NaCl, 5 mM CaCl2, and 0.1% PEG 8000 (polyethylene glycol; JT Baker or Fisher Scientific). Determinations were made using purified human Factor XIa at a final concentration of 40 pM (Sekisui Diagnostics) and the synthetic substrate, Z-Gly-Pro-Arg-AFC, TFA salt (Sigma #C0980) at a concentration of 100 μM.
Times required to achieve equilibration between enzyme and inhibitor were determined in control experiments. Initial velocities of product formation in the absence (Vo) or presence of inhibitor (Vi) were measured. Assuming competitive inhibition, and that unity is negligible compared Km/[S], [I]/e, and [I]/e (where [S], [I], and e respectively represent the total concentrations, of substrate, inhibitor and enzyme), the equilibrium constant (Ki) for dissociation of the inhibitor from the enzyme can be obtained from the dependence of Vo/Vi on [I] shown in the following equation.

SMILES	IC50
O=C(O)c1ccc(NC(=O)[C@@H]2[C@H](c3ccccc3)C[C@H](OC3CCNCC3)CN2C(=O)/C=C/c2cc(Cl)ccc2-n2cnnn2)cc1 (racemic) [Example 8, 4-(1-((E)-3-(5-Chloro-2-(1H-tetrazol-1-yl)phenyl)acryloyl)-3-phenyl-5-(piperidin-4-yloxy)piperidine-2-carboxamido)benzoic acid]	4.7 nM
O=C(O)c1ccc(NC(=O)[C@@H]2[C@H](C3CCCCC3)C[C@H](OC3CCNCC3)CN2C(=O)/C=C/c2cc(Cl)ccc2-n2cnnn2)cc1 (racemic) [Example 11]	6.1 nM
O=C(O)c1ccc(NC(=O)[C@@H]2[C@H](OC3CCNCC3)C[C@H](c3ccccc3)CN2C(=O)/C=C/c2cc(Cl)ccc2-n2cnnn2)cc1 (racemic) [Example 12, 4-(1-((E)-3-(5-chloro-2-(1H-tetrazol-1-yl)phenyl)acryloyl)-5-phenyl-3-(piperidin-4-yloxy)piperidine-2-carboxamido)benzoic acid]	155 nM
O=C(O)c1ccc(NC(=O)[C@@H]2[C@H](c3ccccc3)C[C@H](OC3CCNCC3)CN2C(=O)/C=C/c2cc(Cl)ccc2-n2cnnn2)cc1 (single isomer, unassigned) [Example 9]	2.5 nM
COC(=O)Nc1ccc(-c2c[nH]c(C3C(c4ccc(F)cc4)CC(N4CCC(N)CC4)CN3C(=O)/C=C/c3cc(Cl)ccc3-n3cnnn3)n2)cc1 (single isomer, unassigned) [Example 13, Methyl (4-{2-[4-amino-1′-{(2E)-3-[5-chloro-2-(1H-tetrazol-1-yl)phenyl]prop-2-enoyl}-5′-(4-fluorophenyl)-1,3′-bipiperidin-6′-yl]-1H-imidazol-4-yl}phenyl)-carbamate]	1.7 nM
O=C(O)c1ccc(NC(=O)[C@@H]2[C@H](c3ccccc3)C[C@H](C3CCNCC3)CN2C(=O)/C=C/c2cc(Cl)ccc2-n2cnnn2)cc1 (single isomer, unassigned) [Example 23, trifluoroacetic acid salt]	640 nM
COC(=O)Nc1ccc(-c2c[nH]c([C@@H]3[C@H](C4CC4)C[C@H](C4CCNCC4)CN3C(=O)/C=C/c3cc(Cl)ccc3-n3cnnn3)n2)cc1 (single isomer, unassigned) [Example 26]	656 nM
COC(=O)Nc1ccc(-c2c[nH]c([C@@H]3[C@H](C4CC4)C[C@H](C4CCN(S(C)(=O)=O)CC4)CN3C(=O)/C=C/c3cc(Cl)ccc3-n3cnnn3)n2)cc1 (single isomer, unassigned) [Example 28]	652 nM
O=C(O)c1ccc(NC(=O)C2C(c3ccccc3)CC(N3CCNCC3)CN2C(=O)/C=C/c2cc(Cl)ccc2-n2cnnn2)cc1 (stereo not drawn) [Example 2, 4-{[(1-{(2E)-3-[5-chloro-2-(1H-tetrazol-1-yl)phenyl]prop-2-enoyl}-3-phenyl-5-piperazin-1-ylpiperidin-2-yl)carbonyl]amino}benzoic acid]	11.4 nM
CC(C)C1CC(N2CCC(N)CC2)CN(C(=O)/C=C/c2cc(Cl)ccc2-n2cnnn2)C1C(=O)Nc1ccc(C(=O)O)cc1 (stereo not drawn) [Example 3, 4-({[4-amino-1′-{(2E)-3-[5-chloro-2-(1H-tetrazol-1-yl)phenyl]prop-2-enoyl}-5′-(1-methylethyl)-1,3′-bipiperidin-6′-yl]carbonyl}amino)benzoic acid]	27.2 nM
NC1CCN(C2CC(C3CC3)C(C(=O)Nc3ccc(C(=O)O)cc3)N(C(=O)/C=C/c3cc(Cl)ccc3-n3cnnn3)C2)CC1 (stereo not drawn) [Example 4, 4-{[(4-amino-1′-{(2E)-3-[5-chloro-2-(1H-tetrazol-1-yl)phenyl]prop-2-enoyl}-5′-cyclopropyl-1,3′-bipiperidin-6′-yl)carbonyl]amino}benzoic acid]	2.2 nM
CC1CC(N2CCC(N)CC2)CN(C(=O)/C=C/c2cc(Cl)ccc2-n2cnnn2)C1C(=O)Nc1ccc(C(=O)O)cc1 (stereo not drawn) [Example 5, 4-{[(4-amino-1′-{(2E)-3-[5-chloro-2-(1H-tetrazol-1-yl)phenyl]prop-2-enoyl}-5′-methyl-1,3′-bipiperidin-6′-yl)carbonyl]amino}benzoic acid]	105 nM
NC1CCN([C@@H]2C[C@H](c3ccccc3)[C@H](C(=O)Nc3ccc(C(=O)O)cc3)N(C(=O)/C=C/c3cc(Cl)ccc3-n3cnnn3)C2)CC1 [Example 7, 4-({[(3′R,5′R,6′R)-4-amino-1′-{(2E)-3-[5-chloro-2-(1H-tetrazol-1-yl)phenyl]prop-2-enoyl}-5′-phenyl-1,3′-bipiperidin-6′-yl]carbonyl}amino)benzoic acid]	0.4 nM
O=C(O)c1ccc(NC(=O)[C@H]2[C@@H](c3ccccc3)C[C@@H](OC3CCNCC3)CN2C(=O)/C=C/c2cc(Cl)ccc2-n2cnnn2)cc1 [Example 10, 4-((2R,3R,5R)-1-((E)-3-(5-chloro-2-(1H-tetrazol-1-yl)phenyl)acryloyl)-3-phenyl-5-(piperidin-4-yloxy)piperidine-2-carboxamido)benzoic acid]	306 nM
NC1CCN(C2CC(c3ccc(F)cc3)C(c3nc(-c4cccnc4)c[nH]3)N(C(=O)/C=C/c3cc(Cl)ccc3-n3cnnn3)C2)CC1 (stereo not drawn) [Example 14, 1′-{(2E)-3-[5-chloro-2-(1H-tetrazol-1-yl)phenyl]prop-2-enoyl}-5′-(4-fluorophenyl)-6′-(4-pyridin-3-yl-1H-imidazol-2-yl)-1,3′-bipiperidin-4-amine]	139 nM
NC1CCN([C@H]2C[C@@H](c3ccc(F)cc3)[C@@H](c3nc(-c4cccnc4)c[nH]3)N(C(=O)/C=C/c3cc(Cl)ccc3-n3cnnn3)C2)CC1 [Example 15, (3′S,5′S,6′S)-1′-{(2E)-3-[5-chloro-2-(1H-tetrazol-1-yl)phenyl]prop-2-enoyl}-5′-(4-fluorophenyl)-6′-(4-pyridin-3-yl-1H-imidazol-2-yl)-1,3′-bipiperidin-4-amine]	82.1 nM
N#Cc1ccc(-c2cnc(C3C(c4ccc(F)cc4)CC(N4CCC(N)CC4)CN3C(=O)/C=C/c3c(C(F)(F)F)ccc(Cl)c3F)[nH]2)cc1 (stereo not drawn) [Example 16, 4-{2-[4-amino-1′-{(2E)-3-[3-chloro-2-fluoro-6-(trifluoromethyl)phen-yl]prop-2-enoyl}-5′-(4-fluorophenyl)-1,3′-bipiperidin-6′-yl]-1H-imidazol-5-yl}benzonitrile]	35.6 nM
N#Cc1ccc(-c2cnc(C3C(c4ccc(F)cc4)CC(N4CCC(N)CC4)CN3C(=O)/C=C/c3c(C(F)(F)F)ccc(Cl)c3F)[nH]2)cc1 (stereo not drawn) [Example 17, 4-{2-[4-amino-1′-{(2E)-3-[3-chloro-2-fluoro-6-(trifluoromethyl)phen-yl]prop-2-enoyl}-5′-(4-fluorophenyl)-1,3′-bipiperidin-6′-yl]-1H-imidazol-5-yl}benzonitrile]	889 nM
N#Cc1ccc(-c2cnc(C3C(c4ccc(F)cc4)CC(N4CCC(N)CC4)CN3C(=O)/C=C/c3cc(Cl)ccc3-n3cnnn3)[nH]2)cc1 (stereo not drawn) [Example 18, 4-{2-[4-amino-1′-{(2E)-3-[5-chloro-2-(1H-tetrazol-1-yl)phenyl]prop-2-enoyl}-5′-(4-fluorophenyl)-1,3′-bipiperidin-6′-yl]-1H-imidazol-5-yl}benzonitrile]	16.5 nM
COC(=O)Nc1ccc(-c2cnc(C3C(c4ccc(F)cc4)CC(N4CCC(N)CC4)CN3C(=O)/C=C/c3c(C(F)(F)F)ccc(Cl)c3F)[nH]2)cc1 (stereo not drawn) [Example 19, methyl (4-{2-[4-amino-1′-{(2E)-3-[3-chloro-2-fluoro-6-(trifluorometh-yl)phenyl]prop-2-enoyl}-5′-(4-fluorophenyl)-1,3′-bipiperidin-6′-yl]-1H-imidazol-5-yl}phenyl)carbamate]	67.8 nM
COC(=O)Nc1ccc(-c2cnc(C3C(c4ccc(F)cc4)CC(N4CCC(N)CC4)CN3C(=O)/C=C/c3c(C(F)(F)F)ccc(Cl)c3F)[nH]2)cc1 (stereo not drawn) [Example 20, methyl (4-{2-[4-amino-1′-{(2E)-3-[3-chloro-2-fluoro-6-(trifluoromethyl)phenyl]prop-2-enoyl}-5′-(4-fluorophenyl)-1,3′-bipiperidin-6′-yl]-1H-imidazol-5-yl}phenyl)carbamate]	128 nM
COC(=O)Nc1ccc(-c2c[nH]c(C3C(c4ccc(F)cc4)CC(N4CCC(N)CC4)CN3C(=O)/C=C/c3c(F)ccc(Cl)c3F)n2)cc1 (stereo not drawn) [Example 21, methyl [4-(2-{4-amino-1′-[(2E)-3-(3-chloro-2,6-difluorophenyl)prop-2-enoyl]-5′-(4-fluorophenyl)-1,3′-bipiperidin-6′-yl}-1H-imidazol-4-yl)phenyl]carbamate]	407 nM
COC(=O)Nc1ccc(-c2c[nH]c([C@@H]3[C@H](C4CC4)C[C@H](N4CCC(N)CC4)CN3C(=O)/C=C/c3cc(Cl)ccc3-n3cnnn3)n2)cc1 [Example 22, methyl (4-{2-[(3′S,5′S,6′S)-4-amino-1′-{(2E)-3-[5-chloro-2-(1H-tetrazol-1-yl)phenyl]prop-2-enoyl}-5′-cyclopropyl-1,3′-bipiperidin-6′-yl]-1H-imidazol-4-yl}phenyl)carbamate]	671 nM
C[C@@H]1C[C@H](C2CCNCC2)CN(C(=O)/C=C/c2cc(Cl)ccc2-n2cnnn2)[C@@H]1C(=O)Nc1ccc(C(=O)O)cc1 [Example 24, 4-((3R,5R,6S)-1-((E)-3-(5-chloro-2-(1H-tetrazol-1-yl)phenyl)acryloyl)-5-methyl-[3,4′-bipiperidine]-6-carboxamido)benzoic acid]	579 nM
